According to patent publication US10405547B2, “Substituted cyclic amides as herbicides” (FMC Corporation, priority 2015, dated 2019):

Tests used:
Type in all cases: in vivo
[1] = tested on: ducksalad (Heteranthera limosa); experiment: Test B flooded paddy test, ducksalad; details: 250 g ai/ha, applied to paddy water, visual rating after 13 to 15 days, scale 0 (no effect) to 100 (complete control)
Method in brief: (§1)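 Ratings were visual and made relative to untreated controls after 13 to 15 greenhouse days.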

corn (Zea mays) = experiment: Test A postemergence, corn; details: visual injury, 0 to 100 scale (0 no effect, 100 complete control), approximately 10 days
Method in brief: (§2)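 Visual injury scores (0 no effect to 100 complete control) taken about 10 days after treatment, relative to untreated plants. Treatments were directed soil spray at planting for preemergence, or foliar application to one- to two-leaf plants (2-10 cm) for postemergence, with surfactant-containing formulations in loam–sand pots.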

[2] = tested on: barnyardgrass (Echinochloa crus-galli); experiment: Test B flooded paddy test, barnyardgrass; details: 250 g ai/ha, applied to paddy water, visual rating after 13 to 15 days, scale 0 (no effect) to 100 (complete control)
Method in brief: as §1

[3] = tested on: foxtail, giant (Setaria faberii); experiment: Test A preemergence, giant foxtail; details: 0 to 100 scale (0 no effect, 100 complete control)
Method in brief: as §2

[4] = tested on: ryegrass, Italian (Lolium multiflorum); experiment: Test A postemergence, Italian ryegrass; details: visual injury, 0 to 100 scale (0 no effect, 100 complete control), approximately 10 days
Method in brief: as §2

[5] = tested on: barnyardgrass (Echinochloa crus-galli); experiment: Test A postemergence, barnyardgrass; details: visual injury, 0 to 100 scale (0 no effect, 100 complete control), approximately 10 days
Method in brief: as §2

kochia (Kochia scoparia) [6] = experiment: Test A preemergence, kochia; details: 0 to 100 scale (0 no effect, 100 complete control)
Method in brief: as §2

[7] = tested on: galium (catchweed bedstraw, Galium aparine); experiment: Test A postemergence, galium; details: visual injury, 0 to 100 scale (0 no effect, 100 complete control), approximately 10 days
Method in brief: as §2

[8] = tested on: ragweed (common ragweed, Ambrosia elatior); experiment: Test A postemergence, ragweed; details: visual injury, 0 to 100 scale (0 no effect, 100 complete control), approximately 10 days
Method in brief: as §2

[9] = tested on: ragweed (common ragweed, Ambrosia elatior); experiment: Test A preemergence, ragweed; details: 0 to 100 scale (0 no effect, 100 complete control)
Method in brief: as §2

[10] = tested on: sedge, umbrella (small-flower umbrella sedge, Cyperus difformis); experiment: Test B flooded paddy test, umbrella sedge; details: 250 g ai/ha, applied to paddy water, visual rating after 13 to 15 days, scale 0 (no effect) to 100 (complete control)
Method in brief: as §1

[11] = tested on: ryegrass, Italian (Lolium multiflorum); experiment: Test A preemergence, Italian ryegrass; details: 0 to 100 scale (0 no effect, 100 complete control)
Method in brief: as §2

[12] = tested on: pigweed (Amaranthus retroflexus); experiment: Test A postemergence, pigweed; details: visual injury, 0 to 100 scale (0 no effect, 100 complete control), approximately 10 days
Method in brief: as §2

[13] = tested on: blackgrass (Alopecurus myosuroides); experiment: Test A postemergence, blackgrass; details: visual injury, 0 to 100 scale (0 no effect, 100 complete control), approximately 10 days
Method in brief: as §2

[14] = tested on: barnyardgrass (Echinochloa crus-galli); experiment: Test A preemergence, barnyardgrass; details: 0 to 100 scale (0 no effect, 100 complete control)
Method in brief: as §2

[15] = tested on: foxtail, giant (Setaria faberii); experiment: Test A postemergence, giant foxtail; details: visual injury, 0 to 100 scale (0 no effect, 100 complete control), approximately 10 days
Method in brief: as §2

kochia (Kochia scoparia) [16] = experiment: Test A postemergence, kochia; details: visual injury, 0 to 100 scale (0 no effect, 100 complete control), approximately 10 days
Method in brief: as §2

rice (Oryza sativa) = experiment: Test B flooded paddy test, rice; details: 250 g ai/ha, applied to paddy water, visual rating after 13 to 15 days, scale 0 (no effect) to 100 (complete control)
Method in brief: as §1

[17] = tested on: pigweed (Amaranthus retroflexus); experiment: Test A preemergence, pigweed; details: 0 to 100 scale (0 no effect, 100 complete control)
Method in brief: as §2

[18] = tested on: wheat (Triticum aestivum); experiment: Test A postemergence, wheat; details: visual injury, 0 to 100 scale (0 no effect, 100 complete control), approximately 10 days
Method in brief: as §2

For `CN1CC(c2cccc(Oc3ccc(C(F)(F)F)cn3)c2)C(C(=O)Nc2cccc(F)c2F)C1=O` (single isomer, unassigned) [Compound 44], the “Plant response rating, Ducksalad (Flood)” value [1] was 90, the “Plant response rating, Corn” value (corn (Zea mays); 125 g ai/ha) was 40 and the “Plant response rating, Corn” value (corn (Zea mays); 500 g ai/ha) was 80. The “Plant response rating, Barnyardgrass (Flood)” value [2] was 40, the “Plant response rating, Foxtail, Giant” value ([3]; 125 g ai/ha) was 90 and the “Plant response rating, Foxtail, Giant” value ([3]; 500 g ai/ha) was 90. For the same molecule, the “Plant response rating, Ryegrass, Italian” value ([4]; 125 g ai/ha) was 0, the “Plant response rating, Ryegrass, Italian” value ([4]; 500 g ai/ha) was 30 and the “Plant response rating, Barnyardgrass” value ([5]; 125 g ai/ha) was 90. The “Plant response rating, Barnyardgrass” value ([5]; 500 g ai/ha) was 90, the “Plant response rating, Kochia” value (kochia (Kochia scoparia) [6]; 125 g ai/ha) was 0 and the “Plant response rating, Kochia” value (kochia (Kochia scoparia) [6]; 500 g ai/ha) was 0. For the same molecule, the “Plant response rating, Galium” value ([7]; 125 g ai/ha) was 70, the “Plant response rating, Galium” value ([7]; 500 g ai/ha) was 80 and the “Plant response rating, Ragweed” value ([8]; 125 g ai/ha) was 0. For the same molecule, the “Plant response rating, Ragweed” value ([8]; 500 g ai/ha) was 0, the “Plant response rating, Ragweed” value ([9]; 125 g ai/ha) was 0 and the “Plant response rating, Ragweed” value ([9]; 500 g ai/ha) was 60. The “Plant response rating, Sedge, Umbrella (Flood)” value [10] was 0, the “Plant response rating, Ryegrass, Italian” value ([11]; 125 g ai/ha) was 30 and the “Plant response rating, Ryegrass, Italian” value ([11]; 500 g ai/ha) was 90. The “Plant response rating, Pigweed” value ([12]; 125 g ai/ha) was 50, the “Plant response rating, Pigweed” value ([12]; 500 g ai/ha) was 80 and the “Plant response rating, Blackgrass” value ([13]; 125 g ai/ha) was 30. The “Plant response rating, Blackgrass” value ([13]; 500 g ai/ha) was 50, the “Plant response rating, Barnyardgrass” value ([14]; 125 g ai/ha) was 80 and the “Plant response rating, Barnyardgrass” value ([14]; 500 g ai/ha) was 80. The “Plant response rating, Foxtail, Giant” value ([15]; 125 g ai/ha) was 70, the “Plant response rating, Foxtail, Giant” value ([15]; 500 g ai/ha) was 80 and the “Plant response rating, Kochia” value (kochia (Kochia scoparia) [16]; 125 g ai/ha) was 30. The “Plant response rating, Kochia” value (kochia (Kochia scoparia) [16]; 500 g ai/ha) was 60, the “Plant response rating, Rice (Flood)” value (rice (Oryza sativa)) was 0 and the “Plant response rating, Pigweed” value ([17]; 125 g ai/ha) was 30. The “Plant response rating, Pigweed” value ([17]; 500 g ai/ha) was 80, the “Plant response rating, Wheat” value ([18]; 125 g ai/ha) was 0 and the “Plant response rating, Wheat” value ([18]; 500 g ai/ha) was 50.

For `O=C1NCC(c2cccc(OCC3CC3)c2)C1C(=O)Nc1cccc(F)c1F` (stereo not drawn) [Compound 12], the “Plant response rating, Ducksalad (Flood)” value [1] was 20, the “Plant response rating, Corn” value (corn (Zea mays); 125 g ai/ha) was 0 and the “Plant response rating, Corn” value (corn (Zea mays); 500 g ai/ha) was 60. For the same molecule, the “Plant response rating, Barnyardgrass (Flood)” value [2] was 0, the “Plant response rating, Foxtail, Giant” value ([3]; 125 g ai/ha) was 90 and the “Plant response rating, Foxtail, Giant” value ([3]; 500 g ai/ha) was 90. The “Plant response rating, Ryegrass, Italian” value ([4]; 125 g ai/ha) was 20, the “Plant response rating, Ryegrass, Italian” value ([4]; 500 g ai/ha) was 50 and the “Plant response rating, Barnyardgrass” value ([5]; 125 g ai/ha) was 70. For the same molecule, the “Plant response rating, Barnyardgrass” value ([5]; 500 g ai/ha) was 90, the “Plant response rating, Kochia” value (kochia (Kochia scoparia) [6]; 125 g ai/ha) was 0 and the “Plant response rating, Kochia” value (kochia (Kochia scoparia) [6]; 500 g ai/ha) was 40. For the same molecule, the “Plant response rating, Galium” value ([7]; 125 g ai/ha) was 0, the “Plant response rating, Galium” value ([7]; 500 g ai/ha) was 50 and the “Plant response rating, Ragweed” value ([8]; 125 g ai/ha) was 30. The “Plant response rating, Ragweed” value ([8]; 500 g ai/ha) was 30, the “Plant response rating, Ragweed” value ([9]; 125 g ai/ha) was 0 and the “Plant response rating, Ragweed” value ([9]; 500 g ai/ha) was 0. For the same molecule, the “Plant response rating, Sedge, Umbrella (Flood)” value [10] was 0, the “Plant response rating, Ryegrass, Italian” value ([11]; 125 g ai/ha) was 0 and the “Plant response rating, Ryegrass, Italian” value ([11]; 500 g ai/ha) was 20. For the same molecule, the “Plant response rating, Pigweed” value ([12]; 125 g ai/ha) was 0, the “Plant response rating, Pigweed” value ([12]; 500 g ai/ha) was 20 and the “Plant response rating, Blackgrass” value ([13]; 125 g ai/ha) was 0. The “Plant response rating, Blackgrass” value ([13]; 500 g ai/ha) was 60, the “Plant response rating, Barnyardgrass” value ([14]; 125 g ai/ha) was 90 and the “Plant response rating, Barnyardgrass” value ([14]; 500 g ai/ha) was 90. For the same molecule, the “Plant response rating, Foxtail, Giant” value ([15]; 125 g ai/ha) was 70, the “Plant response rating, Foxtail, Giant” value ([15]; 500 g ai/ha) was 90 and the “Plant response rating, Kochia” value (kochia (Kochia scoparia) [16]; 125 g ai/ha) was 0. For the same molecule, the “Plant response rating, Kochia” value (kochia (Kochia scoparia) [16]; 500 g ai/ha) was 20, the “Plant response rating, Rice (Flood)” value (rice (Oryza sativa)) was 0 and the “Plant response rating, Pigweed” value ([17]; 125 g ai/ha) was 0. The “Plant response rating, Pigweed” value ([17]; 500 g ai/ha) was 30, the “Plant response rating, Wheat” value ([18]; 125 g ai/ha) was 0 and the “Plant response rating, Wheat” value ([18]; 500 g ai/ha) was 50.
